{"source": "paper PMC10584882", "about": "(Communications Biology, 2023)", "key": {"SARS-CoV-2 [1]": {"system": "SARS-CoV-2", "test": "Viral loading determination via RT-qPCR in LC-HK2 cells", "assay_type": "cell-based", "conditions": "for Viral titer (% control): LC-HK2, RT-qPCR"}, "SARS-CoV-2 [2]": {"system": "SARS-CoV-2", "test": "Cytopathic effect inhibition assay in LC-HK2 cells", "assay_type": "cell-based", "conditions": "for CPE inhibition (%): LC-HK2"}, "VERO-CCL81 cells": {"system": "VERO-CCL81 cells", "test": "Cell viability assay (CellTiter-Glo), VERO-CCL81", "assay_type": "cell-based", "conditions": "for Cell viability (% control): VERO CCL81, 72 h, replicates of experiments 1 and 2", "procedure": "(§1) VERO-CCL81 was seeded in 96-well plates at a density of 1.5×10^4 cells/well, while LC-HK2 was seeded at a density of 3×10^4 cells/well, following 24 h incubation at 37 °C and 5% CO2 atmosphere. The cell culture media was replaced by serial dilutions of the compounds and the cell viability was determined 72 h post-treatment via CellTiter-Glo® Luminescent Cell Viability Assay (Promega), following the manufacturer’s instructions. Luminescent signal was recorded using a CLARIOstar multi-mode microplate reader (BMG Labtech, Germany). Graphs were generated using GraphPad Prism software version 8.0 (La Jolla, CA, USA, www.graphpad.com). Samples deemed to be technical failures and extreme outlier were removed."}, "LC-HK2 cells": {"system": "LC-HK2 cells", "test": "Cell viability assay (CellTiter-Glo), LC-HK2", "assay_type": "cell-based, human", "conditions": "for Cell viability (% control): LC-HK2, 72 h, replicates", "procedure": "as §1"}, "CatL": {"target": "T1, CatL (Homo sapiens, UniProt P07711)", "T1 construct": "made in house", "T1 sequence (P07711 114-333)": "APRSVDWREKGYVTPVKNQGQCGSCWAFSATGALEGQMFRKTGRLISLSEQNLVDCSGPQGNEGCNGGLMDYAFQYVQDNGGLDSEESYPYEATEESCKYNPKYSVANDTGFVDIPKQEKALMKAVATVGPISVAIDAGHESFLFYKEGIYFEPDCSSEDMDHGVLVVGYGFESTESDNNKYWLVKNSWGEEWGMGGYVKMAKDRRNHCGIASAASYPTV", "test": "Reversibility of covalent cathepsin inhibition (CatL, 60 min incubation)", "assay_type": "biochemical", "conditions": "1 nM CatL, 1–80 nM inhibitor, 37 °C", "source_text": "We observed no increase in relative inhibition over time, thus concluding that the covalent bond between cathepsins and inhibitors is reversible."}}, "note": "Values joined by “and” are separate entries in the source; they are usually repeats but may differ in a detail not shown here. Equal values may be shown once. Read-outs that look alike come from different tables or passages of the source.", "data": [{"compound": "CCCC[C@@H](C=O)NC(=O)[C@H](CC(C)C)NC(=O)OCc1ccccc1", "note": "[Calpeptin, reference compound]", "values": [{"measurement": "Viral titer (% control)", "setting": "SARS-CoV-2 [1]; 0.0195 μM", "value": 100, "unit": "% control"}, {"measurement": "Viral titer (% control)", "setting": "SARS-CoV-2 [1]; 0.0391 μM", "value": 100, "unit": "% control"}, {"measurement": "Viral titer (% control)", "setting": "SARS-CoV-2 [1]; 0.0781 μM", "value": 100, "unit": "% control"}, {"measurement": "Viral titer (% control)", "setting": "SARS-CoV-2 [1]; 0.1563 μM", "value": "100 % control and 71.76 % control"}, {"measurement": "Viral titer (% control)", "setting": "SARS-CoV-2 [1]; 0.3125 μM", "value": "77.19 % control and 100 % control"}, {"measurement": "Viral titer (% control)", "setting": "SARS-CoV-2 [1]; 0.625 μM", "value": "85.89 % control and 100 % control"}, {"measurement": "Viral titer (% control)", "setting": "SARS-CoV-2 [1]; 1.25 μM", "value": "75.06 % control and 100 % control"}, {"measurement": "Viral titer (% control)", "setting": "SARS-CoV-2 [1]; 100 μM", "value": 0, "unit": "% control"}, {"measurement": "EC50", "setting": "SARS-CoV-2 [1]; Severe acute respiratory syndrome coronavirus 2, LC-HK2, RT-qPCR, 72 h post-infection, read-out: Viral titer EC50", "value": 1700, "unit": "nM"}, {"measurement": "CPE inhibition (%)", "setting": "SARS-CoV-2 [2]; 0.0000000001 μM, 1e-10 µM", "value": 6.04, "unit": "%"}, {"measurement": "CPE inhibition (%)", "setting": "SARS-CoV-2 [2]; 0.00000001 μM, 10 fM", "value": 8.96, "unit": "%"}, {"measurement": "CPE inhibition (%)", "setting": "SARS-CoV-2 [2]; 0.0000001 μM, 100 fM", "value": 9.11, "unit": "%"}, {"measurement": "CPE inhibition (%)", "setting": "SARS-CoV-2 [2]; 0.001 μM", "value": 0.77, "unit": "%"}, {"measurement": "CPE inhibition (%)", "setting": "SARS-CoV-2 [2]; 0.01 μM", "value": 24.54, "unit": "%"}, {"measurement": "CPE inhibition (%)", "setting": "SARS-CoV-2 [2]; 0.1 μM", "value": 36.51, "unit": "%"}, {"measurement": "CPE inhibition (%)", "setting": "SARS-CoV-2 [2]; 1 μM", "value": 50.4, "unit": "%"}, {"measurement": "CPE inhibition (%)", "setting": "SARS-CoV-2 [2]; 10 μM", "value": 59.73, "unit": "%"}, {"measurement": "inhibition at 1e-12 µM", "setting": "SARS-CoV-2 [2]; Severe acute respiratory syndrome coronavirus 2, LC-HK2, 0.000000000001 μM (first of two lines so printed, r18), read-out: CPE inhibition (%)", "value": 0, "unit": "%"}, {"measurement": "inhibition at 1e-12 µM", "setting": "SARS-CoV-2 [2]; Severe acute respiratory syndrome coronavirus 2, LC-HK2, 0.000000000001 μM (second line, r19), read-out: CPE inhibition (%)", "value": 0, "unit": "%"}, {"measurement": "inhibition at 1e-11 µM", "setting": "SARS-CoV-2 [2]; Severe acute respiratory syndrome coronavirus 2, LC-HK2, 0.00000000001 μM, read-out: CPE inhibition (%)", "value": 0, "unit": "%"}, {"measurement": "inhibition at 1 fM", "setting": "SARS-CoV-2 [2]; Severe acute respiratory syndrome coronavirus 2, LC-HK2, 0.000000001 μM, read-out: CPE inhibition (%)", "value": 0, "unit": "%"}, {"measurement": "inhibition at 10 pM", "setting": "SARS-CoV-2 [2]; Severe acute respiratory syndrome coronavirus 2, LC-HK2, 0.00001 μM, read-out: CPE inhibition (%)", "value": 0, "unit": "%"}, {"measurement": "inhibition at 0.0001 µM", "setting": "SARS-CoV-2 [2]; Severe acute respiratory syndrome coronavirus 2, LC-HK2, 0.0001 μM, read-out: CPE inhibition (%)", "value": 0, "unit": "%"}, {"measurement": "inhibition at 0.01 µM", "setting": "SARS-CoV-2 [2]; Severe acute respiratory syndrome coronavirus 2, LC-HK2, 0.01 μM, read-out: CPE inhibition (%)", "value": 19, "unit": "%"}, {"measurement": "inhibition at 0.1 µM", "setting": "SARS-CoV-2 [2]; Severe acute respiratory syndrome coronavirus 2, LC-HK2, 0.1 μM, read-out: CPE inhibition (%)", "value": 24.4, "unit": "%"}, {"measurement": "inhibition at 1 µM", "setting": "SARS-CoV-2 [2]; Severe acute respiratory syndrome coronavirus 2, LC-HK2, 1 μM, read-out: CPE inhibition (%)", "value": 60.8, "unit": "%"}, {"measurement": "inhibition at 10 µM", "setting": "SARS-CoV-2 [2]; Severe acute respiratory syndrome coronavirus 2, LC-HK2, 10 μM, read-out: CPE inhibition (%)", "value": 52.8, "unit": "%"}, {"measurement": "EC50", "setting": "SARS-CoV-2 [2]; Severe acute respiratory syndrome coronavirus 2, LC-HK2, CellTiter-Glo, 72 h post-infection, read-out: CPE inhibition EC50", "value": 60, "unit": "nM"}, {"measurement": "Cell viability (% control)", "setting": "VERO-CCL81 cells; 0.0781 μM", "value": "94.74 % control and 101.25 % control and 101.91 % control"}, {"measurement": "Cell viability (% control)", "setting": "VERO-CCL81 cells; 0.1563 μM", "value": "97.56 % control and 99.32 % control and 100.01 % control"}, {"measurement": "Cell viability (% control)", "setting": "VERO-CCL81 cells; 0.3125 μM", "value": "82.19 % control and 89.43 % control and 92.71 % control and 95.68 % control and 100.03 % control and 106.22 % control"}, {"measurement": "Cell viability (% control)", "setting": "VERO-CCL81 cells; 0.625 μM", "value": "82.29 % control and 95.76 % control and 97.52 % control and 95.98 % control and 103.97 % control and 109.96 % control"}, {"measurement": "Cell viability (% control)", "setting": "VERO-CCL81 cells; 1.25 μM", "value": "89.05 % control and 94.79 % control and 98.25 % control and 97.91 % control and 104.77 % control and 107.22 % control"}, {"measurement": "Cell viability (% control)", "setting": "VERO-CCL81 cells; 2.5 μM", "value": "86.26 % control and 94.8 % control and 103.32 % control and 94.24 % control and 103.27 % control and 108.67 % control"}, {"measurement": "Cell viability (% control)", "setting": "VERO-CCL81 cells; 5 μM", "value": "90.56 % control and 101.72 % control and 106.83 % control and 95.97 % control and 102.4 % control and 105.71 % control"}, {"measurement": "Cell viability (% control)", "setting": "VERO-CCL81 cells; 10 μM", "value": "85.37 % control and 97.81 % control and 103.34 % control and 84.83 % control and 98.42 % control and 92.92 % control"}, {"measurement": "cytotoxicity (in words)", "setting": "VERO-CCL81 cells; VERO-CCL81, 72 h", "value": "no cytotoxicity up to low micromolar concentrations"}, {"measurement": "cytotoxicity (in words)", "setting": "LC-HK2 cells; LC-HK2, 72 h", "value": "no cytotoxicity up to low micromolar concentrations"}, {"measurement": "Cell viability (% control)", "setting": "LC-HK2 cells; 0.0006 μM", "value": "102.39 % control and 97.09 % control and 90.2 % control"}, {"measurement": "Cell viability (% control)", "setting": "LC-HK2 cells; 0.0012 μM", "value": "105.44 % control and 96.04 % control and 89.58 % control"}, {"measurement": "Cell viability (% control)", "setting": "LC-HK2 cells; 0.0024 μM", "value": "109.38 % control and 90.68 % control and 83.12 % control"}, {"measurement": "Cell viability (% control)", "setting": "LC-HK2 cells; 0.0049 μM", "value": "106.45 % control and 86.68 % control and 80.82 % control"}, {"measurement": "Cell viability (% control)", "setting": "LC-HK2 cells; 0.0098 μM", "value": "103.61 % control and 82.95 % control and 76.92 % control"}, {"measurement": "Cell viability (% control)", "setting": "LC-HK2 cells; 0.0195 μM", "value": "100.9 % control and 86.53 % control and 77.59 % control"}, {"measurement": "Cell viability (% control)", "setting": "LC-HK2 cells; 0.0391 μM", "value": "106.77 % control and 84.3 % control and 75.79 % control"}, {"measurement": "Cell viability (% control)", "setting": "LC-HK2 cells; 0.0781 μM", "value": "97.38 % control and 80.51 % control and 79.02 % control and 97.54 % control and 99.61 % control"}, {"measurement": "Cell viability (% control)", "setting": "LC-HK2 cells; 0.1563 μM", "value": "92.74 % control and 97.96 % control and 106.67 % control and 94.71 % control and 97.7 % control and 98.23 % control"}, {"measurement": "Cell viability (% control)", "setting": "LC-HK2 cells; 0.3125 μM", "value": "85.53 % control and 96.17 % control and 104.18 % control and 94.18 % control and 98.15 % control and 95.62 % control"}, {"measurement": "Cell viability (% control)", "setting": "LC-HK2 cells; 0.625 μM", "value": "92.03 % control and 97.64 % control and 102.17 % control and 95.74 % control and 98.42 % control and 100.55 % control"}, {"measurement": "Cell viability (% control)", "setting": "LC-HK2 cells; 1.25 μM", "value": "89.04 % control and 94.62 % control and 99.72 % control and 93.66 % control and 97.57 % control and 100.65 % control"}, {"measurement": "Cell viability (% control)", "setting": "LC-HK2 cells; 2.5 μM", "value": "87.58 % control and 93.98 % control and 97.34 % control and 91.87 % control and 96.78 % control and 96.3 % control"}, {"measurement": "Cell viability (% control)", "setting": "LC-HK2 cells; 5 μM", "value": "84.13 % control and 88.53 % control and 93.5 % control and 84.79 % control and 90.37 % control and 89.81 % control"}, {"measurement": "Cell viability (% control)", "setting": "LC-HK2 cells; 10 μM", "value": "82.98 % control and 84.95 % control and 87.98 % control and 79.13 % control and 81.86 % control and 83.76 % control"}, {"measurement": "Cell viability (% control)", "setting": "LC-HK2 cells; 100 μM", "value": "28.28 % control and 43.21 % control and 44.92 % control"}, {"measurement": "reversibility of covalent bond to cathepsin", "setting": "CatL", "value": "reversible"}]}]}
